From US10131652B2, “Pyrimidinyloxy benzene derivatives as herbicides” (E. I. DU PONT DE NEMOURS AND COMPANY, priority 2014, dated 2018)

What was measured:
Format in all cases: in vivo
rice (Oryza sativa) = experiment: Test C flooded paddy test plant response; conditions: Flood, 250 g ai/ha; scale of 0 to 100 where 0 is no effect and 100 is complete control; 13 to 15 days
Procedure, shortened: (§1)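 Greenhouse paddy assay, 13–15 days. Treatment into 3 cm floodwater over 2-leaf plants; visual 0–100 rating against controls.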

[1] = system: ducksalad (Heteranthera limosa); experiment: Test C flooded paddy test plant response; conditions: Flood, 250 g ai/ha; scale of 0 to 100 where 0 is no effect and 100 is complete control; 13 to 15 days
Procedure, shortened: as §1

[2] = system: barnyardgrass (Echinochloa crus-galli); experiment: Test C flooded paddy test plant response; conditions: Flood, 250 g ai/ha; scale of 0 to 100 where 0 is no effect and 100 is complete control; 13 to 15 days
Procedure, shortened: as §1

[3] = system: small-flower umbrella sedge (Cyperus difformis); experiment: Test C flooded paddy test plant response; conditions: Flood, 250 g ai/ha; scale of 0 to 100 where 0 is no effect and 100 is complete control; 13 to 15 days
Procedure, shortened: as §1

corn (Zea mays) = experiment: Test B pre-/postemergence plant response
Procedure, shortened: (§2)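 Visual injury scores on a 0–100 scale (100 = complete control) relative to untreated plants, taken about 10 days post-treatment in greenhouse. Treatments were a directed preemergence soil spray and a postemergence spray at one- to two-leaf stage, using surfactant-containing solvent formulation.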

[4] = system: Italian ryegrass (Lolium multiflorum); experiment: Test B pre-/postemergence plant response
Procedure, shortened: as §2

kochia (Kochia scoparia) = experiment: Test B pre-/postemergence plant response
Procedure, shortened: as §2

[5] = system: barnyardgrass (Echinochloa crus-galli); experiment: Test B pre-/postemergence plant response
Procedure, shortened: as §2

[6] = system: wheat (Triticum aestivum); experiment: Test B pre-/postemergence plant response
Procedure, shortened: as §2

[7] = system: ragweed (common ragweed, Ambrosia elatior); experiment: Test B pre-/postemergence plant response
Procedure, shortened: as §2

[8] = system: pigweed (Amaranthus retroflexus); experiment: Test B pre-/postemergence plant response
Procedure, shortened: as §2

[9] = system: giant foxtail (Setaria faberii); experiment: Test B pre-/postemergence plant response
Procedure, shortened: as §2

[10] = system: galium (catchweed bedstraw, Galium aparine); experiment: Test B postemergence plant response
Procedure, shortened: (§3)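 Visual injury ratings, 0 = no effect to 100 = complete control, versus untreated controls approximately 10 days after postemergence spraying in greenhouse. Plants were at one- to two-leaf stage, 2 to 10 cm tall, in loam soil/sand blend; a dash denotes no result.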

[11] = system: blackgrass (Alopecurus myosuroides); experiment: Test B postemergence plant response
Procedure, shortened: as §3

[12] = 31 g ai/ha, Postemergence, 0 to 100 scale, 0 no effect, 100 complete control
[13] = 125 g ai/ha, postemergence, 0 to 100 scale, 0 no effect, 100 complete control
[14] = 31 g ai/ha, Preemergence, 0 to 100 scale where 0 is no effect and 100 is complete control
[15] = Preemergence, 125 g ai/ha, 0 to 100 scale (0 no effect, 100 complete control)
[16] = Postemergence, 500 g ai/ha, 0 to 100 scale (0 no effect, 100 complete control)
[17] = Preemergence, 500 g ai/ha, 0 to 100 scale where 0 is no effect and 100 is complete control
[18] = Preemergence, 125 g ai/ha, 0 to 100 scale where 0 is no effect and 100 is complete control
[19] = Postemergence, 31 g ai/ha, 0 to 100 scale (0 no effect, 100 complete control)

Structure (SMILES): Fc1ccc(-c2cc(C(F)(F)F)no2)c(Oc2ncc(Cl)cn2)c1 [Compound 124]
- Rice plant response rating (rice (Oryza sativa)): 0
- Ducksalad plant response rating [1]: 80
- Barnyardgrass plant response rating [2]: 0
- Sedge, Umbrella plant response rating [3]: 85
- Plant response rating, Corn (corn (Zea mays); [12]): 0
- Plant response rating, Corn (corn (Zea mays); [13]): 10
- Plant response rating, Ryegrass, Italian [4, 14]: 0
- Plant response rating, Ryegrass, Italian [4, 13]: 0
- Ryegrass, Italian plant response rating [4, 15]: 10
- Plant response rating, Kochia (kochia (Kochia scoparia); [14]): 10
- Plant response rating, Kochia (kochia (Kochia scoparia); [13]): 80
- Kochia plant response rating (kochia (Kochia scoparia); [15]): 60
- Plant response rating, Barnyardgrass [5, 12]: 0
- Plant response rating, Barnyardgrass [5, 14]: 0
- Plant response rating, Barnyardgrass [5, 13]: 20
- Barnyardgrass plant response rating [5, 15]: 30
- Plant response rating, Wheat [6, 13]: 0
- Plant response rating, Ragweed [7, 14]: 0
- Plant response rating, Ragweed [7, 13]: 20
- Ragweed plant response rating [7, 15]: 10
- Plant response rating, Pigweed [8, 14]: 40
- Plant response rating, Pigweed [8, 13]: 90
- Pigweed plant response rating [8, 15]: 100
- Plant response rating, Foxtail, Giant [9, 12]: 0
- Plant response rating, Foxtail, Giant [9, 14]: 20
- Plant response rating, Foxtail, Giant [9, 13]: 20
- Foxtail, Giant plant response rating [9, 15]: 100
- Plant response rating, Galium [10, 13]: 100
- Plant response rating, Blackgrass [11, 12]: 0
- Plant response rating, Blackgrass [11, 13]: 30

Structure (SMILES): Clc1cnc(Oc2ccccc2-c2cc(Cl)ncn2)nc1 [Compound 190]
- Rice plant response rating (rice (Oryza sativa)): 0
- Ducksalad plant response rating [1]: 0
- Barnyardgrass plant response rating [2]: 0
- Sedge, Umbrella plant response rating [3]: 0
- Plant response rating, Corn (corn (Zea mays); [13]): 0
- Plant response rating, Corn (corn (Zea mays); [16]): 0
- Plant response rating, Ryegrass, Italian [4, 13]: 0
- Plant response rating, Ryegrass, Italian [4, 16]: 0
- Ryegrass, Italian plant response rating [4, 15]: 0
- Plant response rating, Ryegrass, Italian [4, 17]: 0
- Plant response rating, Kochia (kochia (Kochia scoparia); [13]): 0
- Plant response rating, Kochia (kochia (Kochia scoparia); [16]): 0
- Kochia plant response rating (kochia (Kochia scoparia); [15]): 0
- Plant response rating, Kochia (kochia (Kochia scoparia); [17]): 0
- Plant response rating, Barnyardgrass [5, 13]: 0
- Plant response rating, Barnyardgrass [5, 16]: 0
- Barnyardgrass plant response rating [5, 15]: 0
- Plant response rating, Barnyardgrass [5, 17]: 0
- Plant response rating, Wheat [6, 13]: 0
- Plant response rating, Wheat [6, 16]: 0
- Plant response rating, Ragweed [7, 13]: 10
- Plant response rating, Ragweed [7, 16]: 10
- Ragweed plant response rating [7, 15]: 0
- Plant response rating, Ragweed [7, 17]: 0
- Plant response rating, Pigweed [8, 13]: 0
- Plant response rating, Pigweed [8, 16]: 20
- Pigweed plant response rating [8, 15]: 0
- Plant response rating, Pigweed [8, 17]: 10
- Plant response rating, Foxtail, Giant [9, 13]: 0
- Plant response rating, Foxtail, Giant [9, 16]: 0
- Foxtail, Giant plant response rating [9, 15]: 0
- Plant response rating, Foxtail, Giant [9, 17]: 10
- Plant response rating, Galium [10, 13]: 0
- Plant response rating, Galium [10, 16]: 10
- Plant response rating, Blackgrass [11, 13]: 0
- Plant response rating, Blackgrass [11, 16]: 0

Structure (SMILES): Cn1nncc1-c1ccccc1Oc1ncc(Cl)cn1 [Compound 52]
- Rice plant response rating (rice (Oryza sativa)): 0
- Ducksalad plant response rating [1]: 0
- Barnyardgrass plant response rating [2]: 0
- Sedge, Umbrella plant response rating [3]: 0
- Plant response rating, Corn (corn (Zea mays); [13]): 0
- Plant response rating, Corn (corn (Zea mays); [16]): 10
- Plant response rating, Ryegrass, Italian [4, 13]: 0
- Plant response rating, Ryegrass, Italian [4, 16]: 0
- Plant response rating, Ryegrass, Italian [4, 18]: 0
- Plant response rating, Ryegrass, Italian [4, 17]: 0
- Plant response rating, Kochia (kochia (Kochia scoparia); [13]): 20
- Plant response rating, Kochia (kochia (Kochia scoparia); [16]): 50
- Plant response rating, Kochia (kochia (Kochia scoparia); [18]): 0
- Plant response rating, Kochia (kochia (Kochia scoparia); [17]): 30
- Plant response rating, Barnyardgrass [5, 13]: 0
- Plant response rating, Barnyardgrass [5, 16]: 10
- Plant response rating, Barnyardgrass [5, 18]: 0
- Plant response rating, Barnyardgrass [5, 17]: 0
- Plant response rating, Wheat [6, 13]: 0
- Plant response rating, Wheat [6, 16]: 20
- Plant response rating, Ragweed [7, 13]: 20
- Plant response rating, Ragweed [7, 16]: 20
- Plant response rating, Ragweed [7, 18]: 0
- Plant response rating, Ragweed [7, 17]: 0
- Plant response rating, Pigweed [8, 13]: 30
- Plant response rating, Pigweed [8, 16]: 60
- Plant response rating, Pigweed [8, 18]: 40
- Plant response rating, Pigweed [8, 17]: 50
- Plant response rating, Foxtail, Giant [9, 13]: 0
- Plant response rating, Foxtail, Giant [9, 16]: 0
- Plant response rating, Foxtail, Giant [9, 18]: 0
- Plant response rating, Foxtail, Giant [9, 17]: 0
- Plant response rating, Galium [10, 13]: 40
- Plant response rating, Galium [10, 16]: 50
- Plant response rating, Blackgrass [11, 13]: 0
- Plant response rating, Blackgrass [11, 16]: 10

Structure (SMILES): CC(=O)c1cc(-c2ccccc2Oc2ncc(Br)cn2)no1 [Compound 150]
- Rice plant response rating (rice (Oryza sativa)): 0
- Ducksalad plant response rating [1]: 0
- Barnyardgrass plant response rating [2]: 0
- Sedge, Umbrella plant response rating [3]: 0
- Plant response rating, Corn (corn (Zea mays); [13]): 10
- Plant response rating, Corn (corn (Zea mays); [19]): 0
- Plant response rating, Ryegrass, Italian [4, 14]: 0
- Plant response rating, Ryegrass, Italian [4, 13]: 0
- Plant response rating, Ryegrass, Italian [4, 19]: 0
- Ryegrass, Italian plant response rating [4, 15]: 0
- Plant response rating, Kochia (kochia (Kochia scoparia); [14]): 0
- Plant response rating, Kochia (kochia (Kochia scoparia); [13]): 0
- Plant response rating, Kochia (kochia (Kochia scoparia); [19]): 0
- Kochia plant response rating (kochia (Kochia scoparia); [15]): 0
- Plant response rating, Barnyardgrass [5, 14]: 0
- Plant response rating, Barnyardgrass [5, 13]: 20
- Plant response rating, Barnyardgrass [5, 19]: 0
- Barnyardgrass plant response rating [5, 15]: 20
- Plant response rating, Wheat [6, 13]: 0
- Plant response rating, Wheat [6, 19]: 0
- Plant response rating, Ragweed [7, 14]: 0
- Plant response rating, Ragweed [7, 13]: 0
- Plant response rating, Ragweed [7, 19]: 0
- Ragweed plant response rating [7, 15]: 0
- Plant response rating, Pigweed [8, 14]: 0
- Plant response rating, Pigweed [8, 13]: 20
- Plant response rating, Pigweed [8, 19]: 10
- Pigweed plant response rating [8, 15]: 20
- Plant response rating, Foxtail, Giant [9, 14]: 0
- Plant response rating, Foxtail, Giant [9, 13]: 10
- Plant response rating, Foxtail, Giant [9, 19]: 0
- Foxtail, Giant plant response rating [9, 15]: 20
- Plant response rating, Galium [10, 13]: 10
- Plant response rating, Galium [10, 19]: 0
- Plant response rating, Blackgrass [11, 13]: 10
- Plant response rating, Blackgrass [11, 19]: 0
